US20240228490A1, “HETEROCYCLIC DERIVATIVE INHIBITOR AND PREPARATION METHOD THEREFOR AND APPLICATION THEREOF” (Shanghai Hansoh Biomedical Co., Ltd., priority 2021, published 2024)

Molecular target: PARP1 enzyme (Homo sapiens (Human), UniProt P09874)
Experiment: Inhibitory activity on PARP1 enzyme (chemiluminescence)
Assay type: biochemical
Description: The inhibitory activity of the compounds on PARP1 enzyme was determined by the chemiluminescence method in the experiment. The experiment was carried out in a 384-well plate. Coating histones in a 384-well plate: 5×histone solution was diluted 5 folds with PBS, added to a 384-well ELISA plate (25 μL per well), and incubated at 4° C. overnight. […] A mixture of PARP reaction biotin-labeled substrate, activated DNA, 10×PARP buffer and water was added (12.5 μL per well). Compound solutions with different concentrations were formulated using the experimental buffer (10% DMSO aqueous solution containing 1.25 mM DTT). The final detection concentration started from 100 nM, with 3-fold dilution and 8 concentrations. The compound solutions were added to the reaction wells of the 384-well plate (2.5 μL per well). 2.5 μL of 10% DMSO aqueous solution containing 1.25 mM DTT was added to the positive control well and blank well (2.5 μL per well). […] The plate was centrifuged at 1000 rpm for 1 minute, and reacted at room temperature for 60 minutes. […] Streptavidin-HRP solution diluted 50 folds with Blocking buffer 3 was added (25 μL per well), and the plate was incubated at room temperature for 30 minutes. […] The luminescence reaction solution obtained by mixing ECL substrate A and ELISA ECL substrate B (1:1) was added (50 μL per well) for reaction. The chemiluminescence values were measured immediately with a BioTek Synergy H1 or Envision instrument.
The chemiluminescence values were measured with a BioTek Synergy H1 or Envision instrument. The inhibition rate was calculated, and the concentration and inhibition rate were fitted to a nonlinear regression curve using Graphpad Prism software to obtain the IC50 value.

Sequence of PARP1 enzyme (P09874 whole entry): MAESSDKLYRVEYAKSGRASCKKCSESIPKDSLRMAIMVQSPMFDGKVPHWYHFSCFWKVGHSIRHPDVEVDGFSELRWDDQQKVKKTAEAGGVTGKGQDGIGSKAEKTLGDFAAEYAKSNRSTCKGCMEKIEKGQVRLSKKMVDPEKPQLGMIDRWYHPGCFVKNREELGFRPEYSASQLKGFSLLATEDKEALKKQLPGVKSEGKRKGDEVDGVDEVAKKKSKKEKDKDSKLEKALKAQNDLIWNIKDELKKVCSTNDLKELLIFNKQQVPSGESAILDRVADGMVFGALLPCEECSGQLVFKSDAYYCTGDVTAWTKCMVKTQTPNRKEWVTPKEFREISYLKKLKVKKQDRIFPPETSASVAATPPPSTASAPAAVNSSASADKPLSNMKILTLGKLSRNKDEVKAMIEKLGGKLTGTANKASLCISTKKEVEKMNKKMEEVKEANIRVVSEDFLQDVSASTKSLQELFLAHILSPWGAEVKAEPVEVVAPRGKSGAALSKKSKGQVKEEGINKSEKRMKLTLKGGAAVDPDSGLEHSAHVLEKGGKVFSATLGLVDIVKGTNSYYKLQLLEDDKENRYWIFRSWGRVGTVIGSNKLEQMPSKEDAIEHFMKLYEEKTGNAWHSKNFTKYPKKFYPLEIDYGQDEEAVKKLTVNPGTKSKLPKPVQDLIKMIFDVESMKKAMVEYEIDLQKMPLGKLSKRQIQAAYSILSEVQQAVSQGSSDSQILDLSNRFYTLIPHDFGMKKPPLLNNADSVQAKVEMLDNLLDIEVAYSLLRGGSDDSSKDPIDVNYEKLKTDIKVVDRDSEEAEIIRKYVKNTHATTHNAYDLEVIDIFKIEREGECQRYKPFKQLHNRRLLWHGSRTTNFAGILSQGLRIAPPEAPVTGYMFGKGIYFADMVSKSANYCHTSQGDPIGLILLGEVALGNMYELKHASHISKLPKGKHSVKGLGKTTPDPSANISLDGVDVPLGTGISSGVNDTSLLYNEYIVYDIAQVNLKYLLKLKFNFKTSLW

SMILES | IC50 [nM]
CCc1cc2ncc(CN3CCN(c4ccc5c(c4)CN(C)C5=O)CC3)cc2[nH]c1=O [Example 6, 3-Ethyl-7-((4-(2-methyl-1-oxoisoindolin-5-yl)piperazin-1-yl)methyl)-1,5-naphthyridin-2(1H)-one] | 2.9
CCc1cc2ncc(CN3CCN(c4ccc5c(c4)CNC5=O)CC3)cc2[nH]c1=O [Example 17, 3-Ethyl-7-((4-(1-oxoisoindolin-5-yl)piperazin-1-yl)methyl)-1,5-naphthyridin-2(1H)-one] | 4.5
CCc1cc2ncc(CN3CCN(c4cnc5[nH]ccc5c4)CC3)cc2[nH]c1=O [Example 23, 7-((4-(1H-Pyrrolo[2,3-b]pyridin-5-yl)piperazin-1-yl)methyl)-3-ethyl-1,5-naphthyridin-2(1H)-one] | 3.3
CCc1cc2ncc(CN3CCN(c4ccc5nc(C)[nH]c5c4)CC3)cc2[nH]c1=O [Example 24, 3-Ethyl-7-((4-(2-methyl-1H-benzo[d]imidazol-6-yl)piperazin-1-yl)methyl)-1,5-naphthyridin-2(1H)-one] | 1.7
CCc1cc2ncc(CN3CC=C(c4ccc(C(=O)N[C@H]5CCOC5)nc4)CC3)cc2[nH]c1=O [Example 31, (S)-1′-((7-Ethyl-6-oxo-5,6-dihydro-1,5-naphthyridin-3-yl)methyl)-N-(tetrahydrofuran-3-yl)-1′,2′,3′,6′-tetrahydro-[3,4′-bipyridine]-6-carboxamide] | 1
CCc1cc2ncc(CN3CC=C(c4ccc(C(=O)N[C@@H]5CCOC5)nc4)CC3)cc2[nH]c1=O [Example 32, (R)-1′-((7-Ethyl-6-oxo-5,6-dihydro-1,5-naphthyridin-3-yl)methyl)-N-(tetrahydrofuran-3-yl)-1′,2′,3′,6′-tetrahydro-[3,4′-bipyridine]-6-carboxamide] | 1
CCc1cc2ncc(CN3CC=C(c4ccc(C(=O)NC)c(F)c4)CC3)cc2[nH]c1=O [Example 33, 4-(1-((7-Ethyl-6-oxo-5,6-dihydro-1,5-naphthyridin-3-yl)methyl)-1,2,3,6-tetrahydropyridin-4-yl)-2-fluoro-N-methylbenzamide] | 0.91
CCc1cc2ncc(CN3CC=C(c4ccc(C(=O)NC)nc4OC)CC3)cc2[nH]c1=O [Example 34, 1′-((7-Ethyl-6-oxo-5,6-dihydro-1,5-naphthyridin-3-yl)methyl)-2-methoxy-N-methyl-1′,2′,3′,6′-tetrahydro-[3,4′-bipyridine]-6-carboxamide] | 1.6
CCc1cc2ncc(CN3CC=C(c4ccc(C(=O)NC#N)nc4)CC3)cc2[nH]c1=O [Example 57, N-Cyano-1′-((7-ethyl-6-oxo-5,6-dihydro-1,5-naphthyridin-3-yl)methyl)-1′,2′,3′,6′-tetrahydro-[3,4′-bipyridine]-6-carboxamide] | 2.8
CCc1cc2ncc(CN3CC=C(c4ccc(C(=O)NC)c(F)c4Cl)CC3)cc2[nH]c1=O [Example 65, 3-Chloro-4-(1-((7-ethyl-6-oxo-5,6-dihydro-1,5-naphthyridin-3-yl)methyl)-1,2,3,6-tetrahydropyridin-4-yl)-2-fluoro-N-methylbenzamide] | 2.2
CCc1cc2ncc(CN3CC=C(c4ccc(C(=O)NC)c(F)c4C)CC3)cc2[nH]c1=O [Example 66, 4-(1-((7-Ethyl-6-oxo-5,6-dihydro-1,5-naphthyridin-3-yl)methyl)-1,2,3,6-tetrahydropyridin-4-yl)-2-fluoro-N,3-dimethylbenzamide] | 1.7
CCc1cc2ncc(CN3CC=C(c4ccc(C(=O)NC)c(F)c4F)CC3)cc2[nH]c1=O [Example 67, 4-(1-((7-Ethyl-6-oxo-5,6-dihydro-1,5-naphthyridin-3-yl)methyl)-1,2,3,6-tetrahydropyridin-4-yl)-2,3-difluoro-N-methylbenzamide] | 2.1
CCc1cc2ncc(CN3CCN(c4ccc5c(c4)C(=O)N(C)C5=O)CC3)cc2[nH]c1=O [Example 79, 5-(4-((7-Ethyl-6-oxo-5,6-dihydro-1,5-naphthyridin-3-yl)methyl)piperazin-1-yl)-2-methylisoindoline-1,3-dione] | 3.3
CCc1cc2ncc(CN3CCN(c4ccc5c(C(=O)NC)ncn5c4)CC3)cc2[nH]c1=O [Example 80, 6-(4-((7-Ethyl-6-oxo-5,6-dihydro-1,5-naphthyridin-3-yl)methyl)piperazin-1-yl)-N-methylimidazo[1,5-a]pyridine-1-carboxamide] | 5
CCC1Oc2ncc(CN3CC=C(c4ccc(C(=O)NC)nc4Cl)CC3)cc2NC1=O (centres unmarked) [Example 85, 2-Chloro-1′-((3-ethyl-2-oxo-2,3-dihydro-1H-pyrido[2,3-b][1,4]oxazin-7-yl)methyl)-N-methyl-1′,2′,3′,6′-tetrahydro-[3,4′-bipyridine]-6-carboxamide] | 3.5
CCC1Oc2ncc(CN3CC=C(c4ccc(C(=O)NC)nc4C)CC3)cc2NC1=O (centres unmarked) [Example 86, 1′-((3-Ethyl-2-oxo-2,3-dihydro-1H-pyrido[2,3-b][1,4]oxazin-7-yl)methyl)-N,2-dimethyl-1′,2′,3′,6′-tetrahydro-[3,4′-bipyridine]-6-carboxamide] | 5.1
CCC1Oc2ccc(CN3CC=C(c4ccc(C(=O)NC)nc4Cl)CC3)cc2NC1=O (centres unmarked) [Example 87, 2-Chloro-1′-((2-ethyl-3-oxo-3,4-dihydro-2H-benzo[b][1,4]oxazin-6-yl)methyl)-N-methyl-1′,2′,3′,6′-tetrahydro-[3,4′-bipyridine]-6-carboxamide] | 4.9
CCC1Oc2ccc(CN3CC=C(c4ccc(C(=O)NC)nc4C)CC3)cc2NC1=O (centres unmarked) [Example 88, 1′-((2-Ethyl-3-oxo-3,4-dihydro-2H-benzo[b][1,4]oxazin-6-yl)methyl)-N,2-dimethyl-1′,2′,3′,6′-tetrahydro-[3,4′-bipyridine]-6-carboxamide] | 5
CCC1Oc2ncc(CN3CC=C(c4ccc(C(=O)NC)nc4F)CC3)cc2NC1=O (centres unmarked) [Example 90, 1′-((3-Ethyl-2-oxo-2,3-dihydro-1H-pyrido[2,3-b][1,4]oxazin-7-yl)methyl)-2-fluoro-N-methyl-1′,2′,3′,6′-tetrahydro-[3,4′-bipyridine]-6-carboxamide] | 2.7
CCn1c(=O)[nH]c2cc(CN3CC=C(c4ccc(C(=O)NC)nc4F)CC3)ccc2c1=O [Example 91, 1′-((3-Ethyl-2,4-dioxo-1,2,3,4-tetrahydroquinazolin-7-yl)methyl)-2-fluoro-N-methyl-1′,2′,3′,6′-tetrahydro-[3,4′-bipyridine]-6-carboxamide] | 3
